Each molecule was assayed against T1, human neutrophil elastase (HNE) (Homo sapiens, UniProt P08246) (assay: HNE Enzyme Assay (fluorogenic peptide substrate MeOSuc-Ala-Ala-Pro-Val-AMC)). Conditions: human leukocyte elastase 0.00072 U/mL, substrate 100 μM, 25° C., 30 minutes, at least two separate experiments; read-out: HNE inhibition (IC50 values).
T1 construct: purchased Sigma E8140
T1 sequence (P08246 30-247 limits assumed): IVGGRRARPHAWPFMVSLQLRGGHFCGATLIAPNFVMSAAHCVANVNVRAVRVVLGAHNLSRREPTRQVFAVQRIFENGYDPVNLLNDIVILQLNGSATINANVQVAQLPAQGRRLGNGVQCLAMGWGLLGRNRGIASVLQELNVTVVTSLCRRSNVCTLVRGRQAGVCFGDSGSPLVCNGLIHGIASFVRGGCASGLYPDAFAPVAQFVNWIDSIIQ
Type: biochemical
Procedure: Compounds of this invention were tested for potency in a human neutrophil elastase (HNE) enzyme activity assay.
Assays were performed in 96-well plates in a total assay volume of 100 μL. The final concentration of elastase enzyme (human leukocyte elastase, Sigma E8140) was 0.00072 U/mL. The peptide substrate (MeOSuc-Ala-Ala-Pro-Val-AMC, Calbiochem #324740) was used at a final concentration of 100 μM. The final concentration of DMSO was 1% in the assay buffer (0.05M Tris.HCl, 0.1M NaCl, 0.1M CaCl2, 0.0005% Brij-35, pH 7.5). The enzymatic reaction was started by addition of the enzyme and incubated at 25° C. for 30 minutes. After incubation, the reaction was stopped by addition of soybean trypsin inhibitor (Sigma T9003) at a final concentration of 50 μg/well. Fluorescence was measured using a Molecular Devices fluorescence plate reader using 380 nm excitation and 460 nm emission wavelengths.
A concentration response to each compound was performed and the effect of compound in each experiment was expressed as a percentage inhibition of the control enzyme fluorescence. Dose response curves were plotted and compound potency (IC50) was determined. Compounds were tested in at least two separate experiments.

Row | SMILES | IC50 [nM]
1 | Cc1c(-c2ccnn2-c2ccc(C#N)cc2)n(C(=O)NC(C)(C)c2ncc(CN(C)C)o2)c(=O)n1-c1cccc(C(F)(F)F)c1 [Example 24, 5-[2-(4-Cyano-phenyl)-2H-pyrazol-3-yl]-4-methyl-2-oxo-3-(3-trifluoromethyl-phenyl)-2,3-dihydro-imidazole-1-carboxylic acid [1-(5-dimethylaminomethyl-oxazol-2-yl)-1-methyl-ethyl]-amide] | < 1
2 | Cc1c(-c2ccnn2-c2ccc(C#N)cc2)n(C(=O)N[C@@H](C)C(=O)N(C)CCN(C)C)c(=O)n1-c1cccc(C(F)(F)F)c1 [Example 20, 5-[2-(4-Cyano-phenyl)-2H-pyrazol-3-yl]-4-methyl-2-oxo-3-(3-trifluoromethyl-phenyl)-2,3-dihydro-imidazole-1-carboxylic acid {(S)-1-[(2-dimethylamino-ethyl)-methyl-carbamoyl]-ethyl}-amide] | < 1
3 | Cc1c(-c2ccnn2-c2ccc(C#N)cc2)n(C(=O)N[C@H]2CC[C@H]([N+](C)(C)Cc3ccccc3)CC2)c(=O)n1-c1cccc(C(F)(F)F)c1 [Example 43, Benzyl-(trans-4-{[5-[2-(4-cyano-phenyl)-2H-pyrazol-3-yl]-4-methyl-2-oxo-3-(3-trifluoromethyl-phenyl)-2,3-dihydro-imidazole-1-carbonyl]-amino}-cyclohexyl)-dimethyl-ammonium bromide] | < 1
4 | Cc1c(-c2ccnn2-c2ccc(C#N)cc2)n(C(=O)NC(C)(C)c2ncc(C[N+](C)(C)C)o2)c(=O)n1-c1cccc(C(F)(F)F)c1 [Example 78, [2-(1-{[5-[2-(4-Cyano-phenyl)-2H-pyrazol-3-yl]-4-methyl-2-oxo-3-(3-trifluoromethyl-phenyl)-2,3-dihydro-imidazole-1-carbonyl]-amino}-1-methyl-ethyl)-oxazol-5-ylmethyl]-trimethyl-ammonium benzene sulfonate] | < 1
5 | Cc1c(-c2ccnn2-c2ccc(C#N)cc2)n(C(=O)N[C@@H](C)C(=O)N2CCC([N+](C)(C)C)CC2)c(=O)n1-c1cccc(C(F)(F)F)c1 [Example 69, [1-((S)-2-{[5-[2-(4-Cyano-phenyl)-2H-pyrazol-3-yl]-4-methyl-2-oxo-3-(3-trifluoromethyl-phenyl)-2,3-dihydro-imidazole-1-carbonyl]-amino}-propionyl)-piperidin-4-yl]-trimethyl-ammonium benzene sulfonate] | < 1
6 | Cc1c(-c2ccnn2-c2ccc(C#N)cc2)n(C(=O)N[C@@H](C)c2nnc(C[N+](C)(C)C)o2)c(=O)n1-c1cccc(C(F)(F)F)c1 [Example 63, [5-((S)-1-{[5-[2-(4-Cyano-phenyl)-2H-pyrazol-3-yl]-4-methyl-2-oxo-3-(3-trifluoromethyl-phenyl)-2,3-dihydro-imidazole-1-carbonyl]-amino}-ethyl)-[1,3,4]oxadiazol-2-ylmethyl]-trimethyl-ammonium benzene sulfonate] | < 1
7 | Cc1c(-c2ccnn2-c2ccc(C#N)cc2)n(C(=O)NC2CCC3(CC2)CC[N+](C)(C)CC3)c(=O)n1-c1cccc(C(F)(F)F)c1 [Example 66, 9-{[5-[2-(4-Cyano-phenyl)-2H-pyrazol-3-yl]-4-methyl-2-oxo-3-(3-trifluoromethyl-phenyl)-2,3-dihydro-imidazole-1-carbonyl]-amino}-3,3-dimethyl-3-azonia-spiro[5.5]undecane benzene sulfonate] | < 1
8 | Cc1c(-c2ccnn2-c2ccc(C#N)cc2)n(C(=O)N[C@H](C)c2ccncc2)c(=O)n1-c1cccc(C(F)(F)F)c1 [Example 6, 5-[2-(4-Cyano-phenyl)-2H-pyrazol-3-yl]-4-methyl-2-oxo-3-(3-trifluoromethyl-phenyl)-2,3-dihydro-imidazole-1-carboxylic acid ((R)-1-pyridin-4-yl-ethyl)-amide] | < 1
9 | Cc1c(-c2ccnn2-c2ccc(C#N)cc2)n(C(=O)N[C@@H]2C[C@@H]3C[N+](C)(C)C[C@@H]3C2)c(=O)n1-c1cccc(C(F)(F)F)c1 [Example 37, (3aS,5R,6aR)-5-{[5-[2-(4-Cyano-phenyl)-2H-pyrazol-3-yl]-4-methyl-2-oxo-3-(3-trifluoromethyl-phenyl)-2,3-dihydro-imidazole-1-carbonyl]-amino}-2,2-dimethyl-octahydro-cyclopenta[c]pyrrolium benzene sulfonate] | < 1

Further lines, results first:

Row | IC50 [nM] | SMILES
10 | < 1 | Cc1c(-c2ccnn2-c2ccc(C#N)cc2)n(C(=O)N[C@H]2CC[C@H](C(=O)OCC[N+](C)(C)C)CC2)c(=O)n1-c1cccc(C(F)(F)F)c1 [Example 82, [2-(Trans-4-{[5-[2-(4-cyano-phenyl)-2H-pyrazol-3-yl]-4-methyl-2-oxo-3-(3-trifluoromethyl-phenyl)-2,3-dihydro-imidazole-1-carbonyl]-amino}-cyclohexanecarbonyloxy)-ethyl]-trimethyl-ammonium benzene sulfonate]
11 | < 1 | Cc1c(-c2ccnn2-c2ccc(C#N)cc2)n(C(=O)N[C@H]2CC[C@H](NC(=O)C[N+](C)(C)C)CC2)c(=O)n1-c1cccc(C(F)(F)F)c1 [Example 87, [(Trans-4-{[5-[2-(4-cyano-phenyl)-2H-pyrazol-3-yl]-4-methyl-2-oxo-3-(3-trifluoromethyl-phenyl)-2,3-dihydro-imidazole-1-carbonyl]-amino}-cyclohexylcarbamoyl)-methyl]-trimethyl-ammonium benzene sulfonate]
12 | 1 to 10 | Cc1c(-c2ccnn2-c2ccc(C#N)cc2)n(C(=O)N[C@H]2CC[C@@H](C(=O)NCC[N+](C)(C)C)CC2)c(=O)n1-c1cccc(C(F)(F)F)c1 [Example 80, {2-[(Cis-4-{[5-[2-(4-cyano-phenyl)-2H-pyrazol-3-yl]-4-methyl-2-oxo-3-(3-trifluoromethyl-phenyl)-2,3-dihydro-imidazole-1-carbonyl]-amino}-cyclohexanecarbonyl)-amino]-ethyl}-trimethyl-ammonium benzene sulfonate]
13 | < 1 | Cc1c(-c2ccnn2-c2ccc(C#N)cc2)n(C(=O)N[C@H]2CC[C@H](C[N+](C)(C)C)CC2)c(=O)n1-c1cccc(C(F)(F)F)c1 [Example 29, (Trans-4-{[5-[2-(4-cyano-phenyl)-2H-pyrazol-3-yl]-4-methyl-2-oxo-3-(3-trifluoromethyl-phenyl)-2,3-dihydro-imidazole-1-carbonyl]-amino}-cyclohexylmethyl)-trimethyl-ammonium benzene sulfonate]
14 | 1 to 10 | Cc1c(-c2ccnn2-c2ccc(C#N)cc2)n(C(=O)N[C@@H]2CC[N+](C)(C)C2)c(=O)n1-c1cccc(C(F)(F)F)c1 [Example 33, (R)-3-{[5-[2-(4-Cyano-phenyl)-2H-pyrazol-3-yl]-4-methyl-2-oxo-3-(3-trifluoromethyl-phenyl)-2,3-dihydro-imidazole-1-carbonyl]-amino}-1,1-dimethyl-pyrrolidinium benzenesulfonate]
15 | < 1 | Cc1c(-c2ccnn2-c2ccc(C#N)cc2)n(C(=O)NC2CCN(C(=O)OCC[N+](C)(C)C)CC2)c(=O)n1-c1cccc(C(F)(F)F)c1 [Example 93, [2-(4-{[5-[2-(4-Cyano-phenyl)-2H-pyrazol-3-yl]-4-methyl-2-oxo-3-(3-trifluoromethyl-phenyl)-2,3-dihydro-imidazole-1-carbonyl]-amino}-piperidine-1-carbonyloxy)-ethyl]-trimethyl-ammonium benzene sulfonate]

— US10023558B2, “Compounds” (CHIESI FARMACEUTICI S.P.A., priority 2016, dated 2018)
